The subject of data set [1] is MCF-7/ADR cells. Nature of the data set: Cytotoxicity (toxic effect) of each piperazine derivative alone, SRB assay. Format: cell-based, human. The following applies: 2 h incubation. The protocol:
The MDR human breast cancer cell line MCF-7/ADR was maintained in RPMI 1640, supplemented with 2 mM L-glutamine, 10 mM HEPES, 24 mM NaHCO3, 10% fetal bovine serum, and 1% antibiotic-antimycotic agent at 37 °C in a humidified 5% CO2 atmosphere.
The cytotoxicity of each piperazine derivative was examined in the cells using the sulforhodamine B (SRB) assay. The changes in IC50 values of DNM, P-gp substrate anticancer drug were estimated in the presence of piperazine derivatives at a concentration of 100 μM. The details of the cytotoxicity assay were described in our previous report. […] The IC50 values were calculated with the Table Curve Windows program. The assay was performed in triplicate.

The target of a further data set is human P-gp membrane (Homo sapiens, UniProt P08183). Nature of the data set: P-glycoprotein ATPase activity assay. The following applies: 100 μM.
The subject of data set [2] is MCF-7/ADR cells. The data set is described as follows: Cytotoxicity assay (SRB): change of DNM IC50 in the presence of piperazine derivatives. The following applies: Homo sapiens, NCI/ADR-RES, DNM alone (negative control). Format: cell-based. The protocol: The cytotoxicity of each piperazine derivative was examined in the cells using the sulforhodamine B (SRB) assay. […] The details of the cytotoxicity assay were described in our previous report. […] The IC50 values were calculated with the Table Curve Windows program. The assay was performed in triplicate.

For a further data set, the target named is T1, P-gp (Homo sapiens, UniProt P08183).
T1 construct: uptake (A) and efflux (B) of [^3H]-DNM in MCF-7/ADR cells; endogenous in cells; host or cells: MCF-7/ADR
Nature of the data set: [3H]-DNM efflux study in P-gp overexpressing cells. It is filed as cell-based. The following applies: control: tritium-labeled DNM alone, 1 h, MCF-7/ADR cells. On the procedure: Tritium-labeled P-gp substrate uptake and efflux studies were performed using the modified Harker and Sikic method. […] For the efflux study, cells were incubated with 0.05 μM tritium-labeled DNM for 1 h and subsequently in the absence or presence of 100 μM of pre-selected derivatives for another 1 h after removing 0.05 μM of the tritium-labeled DNM. The uptake and efflux values based on the radioactivity estimated by Liquid Scintillation Counting were normalized to those of 1 × 10^6 cells. The detailed procedures have been reported previously.

In a further data set the test system is P-glycoprotein (P-gp). Details: method as in PMID 12608532. The following applies: cited from earlier work.
The nature of data set [3]: PTX pharmacokinetics in rats, alone or orally co-administered with compound 4. Format: in vivo, Sprague-Dawley rats. The following applies: for AUC(0-inf): read-out: AUCinf of PTX; for k el: read-out: ke of PTX (converted); for half-life: read-out: t1/2 of PTX (converted). The protocol: All the animal experiments were performed using six-week-old male Sprague-Dawley rats (200–235 g) under the procedures granted by the Ewha Womans University Institutional Animal Care and Use Committee (IACUC) (No. 2012-01-019), Korea.
PTX at 2 mg/mL was prepared immediately prior to use with a commercial formulation of Taxol® (Cremophor® EL, anhydrous ethanol and isotonic saline (1:1:4, v/v/v)). Compound 4 (N-(4-(4-bromophenyl)thiazol-2-yl)-2-(N-(2-(4-((4-chlorophenyl)(phenyl)methyl)piperazin-1-yl)-2-oxoethyl)acetamido)acetamide) was prepared using a process similar to PTX formulation for oral administration.
For intravenous injection of 2 mg/kg of PTX (IV) and oral administration of 25 mg/kg of PTX (PO) with 0, 2, or 5 mg/kg of compound 4, the rats were divided into 4 groups on the day. The common carotid artery was catheterized for blood sampling. Blood sampling was conducted at 0, 0.033, 0.083, 0.25, 0.5, 1, 2, 3, 4, 6, 10, and 24 h for the IV group and 0, 0.25, 0.5, 1, 2, 3, 4, 6, 8, 10, and 24 h for PO groups.
Prepared plasma samples mixed with internal standard (4-hydroxybenzoic acid n-hexyl ester) were analyzed by the HPLC system.
WinNonlin® Professional version 5.2 software (Pharsight Corporation, Mountain View, CA, USA) was used to estimate the PK parameters following intravenous or oral PTX administrations to the rats. Non-compartmental analysis was performed using the plasma PTX concentration–time profiles to obtain the following PK parameters: Area under the plasma concentration–time curve from zero time to infinity (AUCinf), elimination half-life (t1/2), apparent volume of distribution after oral administration (Vz/F), and oral clearance (Cl/F). The maximum plasma concentration (Cmax) and the time required to reach Cmax (Tmax) were directly measured from the plasma PTX concentration–time curve. The absolute BA and relative BA (AB and RB, respectively) of PTX were calculated using the respective formulas below:AB (%) = AUC po/AUC iv × IV dose/PO dose × 100 RB (%) = AUC po co–administration/AUC po control × 100

On the set-up of data set [4]: method as in doi:10.1016/S0378-5173(98)00188-4. The following applies: cited from earlier work.
For the next data set, the system named is MES-SA/Dx5. Further details: method as in PMID 19275716. The following applies: xenograft mice with MES-SA/Dx5 (P-gp overexpressed) vs parental cells; cited from earlier work.
Where [5] appears, read: PTX 25 mg/kg PO alone (oral control).
The mark [6] stands for this setting: male, Sprague-Dawley, rat, plasma, PTX 2 mg/kg IV (IV control).
Where [7] appears, read: male, Sprague-Dawley, rat, plasma, PTX 25 mg/kg PO alone (oral control).

Read-outs that look alike come from different tables or passages of the source.

As usually defined, the IC50 is the point on the concentration scale where inhibition reaches its midpoint. Broadly, the Cmax is the peak of the concentration-time curve. As usually defined, the Tmax is the time from dosing to the highest level.

human P-gp membrane, sequence (P08183 whole entry): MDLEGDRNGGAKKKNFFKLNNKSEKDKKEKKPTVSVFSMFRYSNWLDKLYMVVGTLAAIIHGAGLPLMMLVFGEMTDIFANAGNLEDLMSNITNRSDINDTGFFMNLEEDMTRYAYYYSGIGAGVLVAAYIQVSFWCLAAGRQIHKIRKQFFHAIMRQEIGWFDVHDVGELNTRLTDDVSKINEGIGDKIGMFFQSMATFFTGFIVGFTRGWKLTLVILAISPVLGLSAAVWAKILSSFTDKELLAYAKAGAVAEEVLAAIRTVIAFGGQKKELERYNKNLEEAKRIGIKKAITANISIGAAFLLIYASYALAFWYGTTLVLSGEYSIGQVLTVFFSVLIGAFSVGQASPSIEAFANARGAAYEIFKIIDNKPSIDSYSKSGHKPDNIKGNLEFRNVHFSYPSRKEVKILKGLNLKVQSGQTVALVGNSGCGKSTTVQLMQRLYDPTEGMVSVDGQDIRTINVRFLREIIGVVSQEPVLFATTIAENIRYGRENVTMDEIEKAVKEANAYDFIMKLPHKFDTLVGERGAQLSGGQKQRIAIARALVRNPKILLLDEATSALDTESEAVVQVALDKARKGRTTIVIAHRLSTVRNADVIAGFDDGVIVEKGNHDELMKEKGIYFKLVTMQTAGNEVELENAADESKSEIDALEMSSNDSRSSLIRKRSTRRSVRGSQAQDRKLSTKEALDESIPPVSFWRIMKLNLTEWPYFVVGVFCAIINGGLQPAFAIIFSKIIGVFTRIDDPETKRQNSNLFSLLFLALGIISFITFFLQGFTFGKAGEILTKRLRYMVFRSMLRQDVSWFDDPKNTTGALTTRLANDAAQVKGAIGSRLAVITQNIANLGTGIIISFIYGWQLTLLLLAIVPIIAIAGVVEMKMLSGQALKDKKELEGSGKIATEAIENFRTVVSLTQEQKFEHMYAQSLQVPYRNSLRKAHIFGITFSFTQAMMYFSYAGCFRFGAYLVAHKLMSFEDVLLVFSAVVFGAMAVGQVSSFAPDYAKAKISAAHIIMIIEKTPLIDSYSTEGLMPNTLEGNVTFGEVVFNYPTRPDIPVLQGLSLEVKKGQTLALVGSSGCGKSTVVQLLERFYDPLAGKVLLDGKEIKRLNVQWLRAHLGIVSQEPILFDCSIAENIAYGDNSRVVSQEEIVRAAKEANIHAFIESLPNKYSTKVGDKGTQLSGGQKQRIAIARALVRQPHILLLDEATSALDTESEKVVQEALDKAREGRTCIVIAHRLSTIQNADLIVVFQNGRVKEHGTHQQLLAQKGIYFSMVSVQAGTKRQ
T1 sequence (P08183 whole entry): as above
From the text for human P-gp membrane: The rate of phosphate release per mg membrane protein represented the ATPase activity by converting to the relative ratio versus control value.

As to `O=C(CN(CC(=O)N1CCN(C(c2ccccc2)c2ccc(Cl)cc2)CC1)C(=O)c1ccc2ccccc2c1)NCc1ccccc1` (stereo not shown) [Compound 1], the cell survival ratio was 89.77 in the data set with MCF-7/ADR cells [1] (5 μM); 90.47 in the data set with MCF-7/ADR cells [1] (10 μM); 89.23 with MCF-7/ADR cells [1] (25 μM); 88.56 in the data set with MCF-7/ADR cells [1] (50 μM); 87.21 in the data set with MCF-7/ADR cells [1] (100 μM).
As to `O=C(CN(CC(=O)N1CCN(C(c2ccccc2)c2ccc(Cl)cc2)CC1)C(=O)Cc1ccccc1)Nc1nc(-c2ccc(Cl)cc2)cs1` (stereo not shown) [Compound 2], the cell survival ratio in the data set on MCF-7/ADR cells [1] (5 μM) is reported as 102.70; in the data set on MCF-7/ADR cells [1] (10 μM), 102.87; in the data set with MCF-7/ADR cells [1] (25 μM), 86.94; in the data set with MCF-7/ADR cells [1] (50 μM) it was 86.10; with MCF-7/ADR cells [1] (100 μM), 87.75. Moreover, on human P-gp membrane, the “P-gp ATPase activity compared to the control” value stood at 1.3 fold. Moreover, the “P-gp ATPase activity, ratio of the control (blank)” value on human P-gp membrane is listed as 1.29.
Take `O=C(CN(CC(=O)N1CCN(C(c2ccccc2)c2ccc(Cl)cc2)CC1)C(=O)c1ccc2ccccc2c1)Nc1nc(-c2ccc(Cl)cc2)cs1` (stereo not shown) [Compound 3]: the cell survival ratio with MCF-7/ADR cells [1] (5 μM) is recorded as 102.03; with MCF-7/ADR cells [1] (10 μM), 101.69; in the data set on MCF-7/ADR cells [1] (25 μM) it was 102.24; in the data set with MCF-7/ADR cells [1] (50 μM), 86.26; with MCF-7/ADR cells [1] (100 μM), 85.90.
As for `CC(=O)N(CC(=O)Nc1nc(-c2ccc(Br)cc2)cs1)CC(=O)N1CCN(C(c2ccccc2)c2ccc(Cl)cc2)CC1` (stereo not shown) [Compound 4, N-(4-(4-bromophenyl)thiazol-2-yl)-2-(N-(2-(4-((4-chlorophenyl)(phenyl)methyl)piperazin-1-yl)-2-oxoethyl)acetamido)acetamide], the cell survival ratio in the data set on MCF-7/ADR cells [1] (5 μM) is reported as 100.76; in the data set on MCF-7/ADR cells [1] (10 μM) it was 98.50; in the data set on MCF-7/ADR cells [1] (25 μM), 96.14; in the data set on MCF-7/ADR cells [1] (50 μM), 96.90; in the data set on MCF-7/ADR cells [1] (100 μM), 87.63. In addition, the “P-gp ATPase activity compared to the control” value at human P-gp membrane came out at 1.2 fold. Moreover, on human P-gp membrane, the “P-gp ATPase activity, ratio of the control (blank)” value came out at 1.18.
As for `COc1ccc(CNC(=O)CN(CC(=O)N2CCN(C(c3ccccc3)c3ccc(Cl)cc3)CC2)C(=O)c2ccccc2)cc1` (stereo not shown) [Compound 5], the cell survival ratio in the data set with MCF-7/ADR cells [1] (5 μM) was 101.71; in the data set with MCF-7/ADR cells [1] (10 μM), 87.22; in the data set with MCF-7/ADR cells [1] (25 μM), 83.46; in the data set on MCF-7/ADR cells [1] (50 μM), 83.84; in the data set with MCF-7/ADR cells [1] (100 μM), 81.94.
For `CC(C)(C)c1cc(NC(=O)CN(CC(=O)N2CCN(C(c3ccccc3)c3ccc(Cl)cc3)CC2)C(=O)c2ccccc2)no1` (stereo not shown) [Compound 6], the cell survival ratio in the data set on MCF-7/ADR cells [1] (5 μM) is on record as 100.72; in the data set with MCF-7/ADR cells [1] (10 μM), 101.38; in the data set on MCF-7/ADR cells [1] (25 μM), 100.76; in the data set with MCF-7/ADR cells [1] (50 μM), 85.68; with MCF-7/ADR cells [1] (100 μM) it was 82.91.
In the case of `COc1cccc2c1C(=O)c1c(O)c3c(c(O)c1C2=O)C[C@@](O)(C(C)=O)C[C@@H]3O[C@H]1C[C@H](N)[C@H](O)[C@H](C)O1` [DNM, Daunomycin], in the data set with MCF-7/ADR cells [2], the IC50 stood at 31.7 µM. Further, the “[3H]-DNM efflux” value on P-gp stood at 63.0 ± 3.3%.
Regarding `CC(=O)O[C@H]1C(=O)[C@@]2(C)[C@H]([C@H](OC(=O)c3ccccc3)[C@]3(O)C[C@H](OC(=O)[C@H](O)[C@@H](NC(=O)c4ccccc4)c4ccccc4)C(C)=C1C3(C)C)[C@]1(OC(C)=O)CO[C@@H]1C[C@@H]2O` [PTX, Paclitaxel], the “share of orally administered PTX excluded from the GI track by P-gp” value in the data set with P-glycoprotein (P-gp) is “approximately 50%”. In data set [3] (PTX 2 mg/kg IV (IV control)), the “AB (absolute BA) of PTX” value turned out to be 100.0%, the “Cl/F of PTX” value is given as 614 ± 123 mL/h and the “Vz/F of PTX” value stood at 1754 ± 419 mL. In addition, in data set [3] (setting [5]), the “AB (absolute BA) of PTX” value turned out to be 7.1% and the “Cl/F of PTX” value is listed as 8721 ± 2040 mL/h. Further, in data set [3] (setting [6]), the Cmax is 2970 ± 428 ng/mL, the AUC(0-inf) was 835 ± 155 ng·h/mL, the k el is 0.000103 s⁻¹ and the half-life was 2.06 ± 0.8 h. Besides, in data set [3] (setting [7]), the Cmax worked out at 189 ± 76 ng/mL, the time to peak (Tmax) was found to be 2 h, the AUC(0-inf) turned out to be 745 ± 208 ng·h/mL and the k el is 6.47e-05 s⁻¹. The half-life in data set [3] (setting [7]) was 3.1 ± 0.8 h. The Vd/F in data set [3] (male, Sprague-Dawley, rat, plasma, PTX 25 mg/kg PO alone (oral control), read-out: Vz/F of PTX) was determined as 40.6 L. Further, in data set [4], the “bioavailability of PTX” value was “below 10%”.
Turning to `O=C(C(c1ccccc1)c1ccc([125I])cc1)N1CCN(CC(O)COc2cccc3ncccc23)CC1` (stereo not shown) [radio-iodinated piperazine derivative, 5-[3-{4-(2-phenyl-2-(4-[125I]iodo-phenyl)acetyl)piperazin-1-yl}-2-hydroxypropoxy] quinoline], in the data set on MES-SA/Dx5, the “shortening of absorption half-life” value is reported as around 10 fold and the “shortening of mean residence time” value was 50%.

(Values after PMC6359037, “Effects of Piperazine Derivative on Paclitaxel Pharmacokinetics” (Pharmaceutics, 2019).)
